Read-outs that look alike come from different tables or passages of the source.
Experiments:
[1] = molecular target: AM2 V27A (valine→alanine mutation at residue 27 in the M2 protein) (Influenza A virus, UniProt P0DOF5, V27A); format: cell-based, influenza virus A/Udorn/72
[2] = molecular target: AM2 S31N (serine→asparagine mutation at residue 31 in the M2 protein) (Influenza A virus, UniProt P0DOF5, S31N); format: cell-based, influenza virus A/Udorn/72

Structure (SMILES)	V27A OOcyte Inhibition at 100 uM (%) ([1]; pH 5.5)	S31N OOcyte Inhibition at 100 uM (%) ([2]; pH 5.5)	V27A OOcyte Inhibition at 100 uM (%) [1]	S31N OOcyte Inhibition at 100 uM (%) [2]
Fc1ccc(CNC23CC4CC(CC(C4)C2)C3)c(F)c1 [Example 54, Adamantan-1-yl-(2,4-difluoro-benzyl)-amine]	B (key: (A)=31-95%; (B)=0-30%)	B (key: (A)=31-95%; (B)=0-30%)	–	–
Oc1ccc(CNC23CC4CC(CC(C4)C2)C3)cc1F [Example 48, 4-(Adamantan-1-ylaminomethyl)-2-fluoro-phenol]	A (key: (A)=31-95%; (B)=0-30%)	A (key: (A)=31-95%; (B)=0-30%)	–	–
c1coc(COc2ccc(CNC34CC5CC(CC(C5)C3)C4)cc2)c1 [Example 21, Adamantan-1-yl-[4-(furan-2-ylmethoxy)-benzyl]-amine]	A (key: (A)=31-95%; (B)=0-30%)	A (key: (A)=31-95%; (B)=0-30%)	–	–
Oc1ccccc1CNC12CC3CC(CC(C3)C1)C2 [Example 28, 2-(Adamantan-1-ylaminomethyl)-phenol]	B (key: (A)=31-95%; (B)=0-30%)	B (key: (A)=31-95%; (B)=0-30%)	–	–
c1cn(-c2ccc(CNC34CC5CC(CC(C5)C3)C4)cc2)cn1 [Example 36, Adamantan-1-yl-(4-imidazol-1-yl-benzyl)-amine]	B (key: (A)=31-95%; (B)=0-30%)	B (key: (A)=31-95%; (B)=0-30%)	–	–
COc1ccc(CNC23CC4CC(CC(C4)C2)C3)c(OC)c1 [Example 59, Adamantan-1-yl-(2,4-dimethoxy-benzyl)-amine]	B (key: (A)=31-95%; (B)=0-30%)	B (key: (A)=31-95%; (B)=0-30%)	–	–
OCC(Cc1cnc[nH]1)NCC12CC3CC(CC(C3)C1)C2 (stereo not shown) [Example 2, 2-[(adamantan-1-ylmethyl)-amino]-3-(3H-imidazol-4-yl)-propan-1-ol]	B (key: (A)=31-95%; (B)=0-30%)	B (key: (A)=31-95%; (B)=0-30%)	–	–
Brc1cccc(CNC23CC4CC(CC(C4)C2)C3)c1 [Example 3a, N-(3-Bromobenzyl)adamantan-1-amine]	–	–	B (key: (A)=31-95%; (B)=0-30%)	B (key: (A)=31-95%; (B)=0-30%)
c1csc(-c2csc(CNC34CC5CC(CC(C5)C3)C4)c2)c1 [Example 140a, Adamantan-1-yl-[2,3′]bithiophenyl-5′-ylmethyl-amine]	–	–	A (key: (A)=31-95%; (B)=0-30%)	A (key: (A)=31-95%; (B)=0-30%)
COc1ccc(-c2cc(CNC34CC5CC(CC(C5)C3)C4)no2)cc1 [Example 110a, N-((5-(4-methoxyphenyl)isoxazol-3-yl)methyl)adamantan-1-amine]	–	–	B (key: (A)=31-95%; (B)=0-30%)	A (key: (A)=31-95%; (B)=0-30%)
C[S+]([O-])c1ccc(CNC23CC4CC(CC(C4)C2)C3)cc1 (stereo not shown) [Example 24, Adamantan-1-yl-(4-methanesulfinyl-benzyl)-amine]	B (key: (A)=31-95%; (B)=0-30%)	B (key: (A)=31-95%; (B)=0-30%)	–	–
c1ncc(CCNCC23CC4CC(CC(C4)C2)C3)[nH]1 [Example 1, Adamantan-1-ylmethyl-[2-(3H-imidazol-4-yl)-ethyl]-amine]	B (key: (A)=31-95%; (B)=0-30%)	B (key: (A)=31-95%; (B)=0-30%)	–	–
c1cc(CNC23CC4CC(CC(C4)C2)C3)cc(-c2cccs2)c1 [Example 34a, N-(3-(thiophen-2-yl)benzyl)adamantan-1-amine]	–	–	A (key: (A)=31-95%; (B)=0-30%)	B (key: (A)=31-95%; (B)=0-30%)
c1coc(CNC23CC4CC(CC(C4)C2)C3)c1 [Example 69a, Adamantan-1-yl-furan-2-ylmethyl-amine]	–	–	B (key: (A)=31-95%; (B)=0-30%)	B (key: (A)=31-95%; (B)=0-30%)

From patent US9884832B2 (priority 2011, dated 2018)
